According to patent publication US20060127996A1, “Method of extraction of isothiocyanates into oil from glucosinolate-containing plants and method of producing products with oil containing isothiocyanates extracted from glucosinolate-containing plants” (Johns Hopkins University, priority 2004, published 2006):

Key:
[1] = Description: The remainder of the hydrolyzed seed mash (100 g-0.79 g) was partitioned into a total of 400 ml EtOAc, by vigorous stirring and shaking. The mixture was then allowed to settle in a large graduate cylinder, the upper 100 ml was removed and evaporated under vacuum. […] This oil was then vortexed (1 g volume per 100 ml of water), then allowed to re-equilibrate into two phases, filtered, and the aqueous phase used for HPLC determination of sulforaphane content as described above.
Remark: listed apart in the source

Compound: C[S+]([O-])CCCCN=C=S (centres unmarked) [sulforaphane, 4-methylsulfinylbutyl isothiocyanate]
- solubility in oil ([1]; broccoli seed oil): oil soluble
- solubility in hexane ([1]; hexane): not soluble
- solubility in water ([1]; water, back-extraction of the oil): reasonable solubility
- partition in biphasic mixture of ethyl acetate and water (pure sulforaphane spiked into ethyl acetate/water): partitions to the organic fraction
- partition in biphasic mixture of hexane and water (pure sulforaphane spiked into hexane/water): partitions to the aqueous fraction
